Test results published in PubChem BioAssay (NCI).
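Where inhibition never reached the appropriate level, the endpoint shown equals the highest concentration tested. Otherwise, values were interpolated linearly from a five-concentration, 48-hour dose response in 96-well plates. At the TGI there is no net growth.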

Tests used:
Assay in all cases: DTP human tumour cell line panel, 48 h
MOLT-4 leukemia = system: MOLT-4 leukemia
HL-60(TB) leukemia = system: HL-60(TB) leukemia
HT29 colon = system: HT29 colon
CCRF-CEM leukemia = system: CCRF-CEM leukemia
A549 NSCLC = system: A549 NSCLC
KM12 colon = system: KM12 colon
SNB-19 CNS = system: SNB-19 CNS
RXF 393 renal = system: RXF 393 renal
UACC-257 melanoma = system: UACC-257 melanoma
HCT-116 colon = system: HCT-116 colon
SF-295 CNS = system: SF-295 CNS
ACHN renal = system: ACHN renal
SW-620 colon = system: SW-620 colon
MDA-MB-435 = system: MDA-MB-435
LOX IMVI melanoma = system: LOX IMVI melanoma
SK-MEL-28 melanoma = system: SK-MEL-28 melanoma
TK-10 renal = system: TK-10 renal
MDA-MB-231 breast = system: MDA-MB-231 breast
PC-3 prostate = system: PC-3 prostate
DU-145 prostate = system: DU-145 prostate
HOP-92 NSCLC = system: HOP-92 NSCLC
MALME-3M melanoma = system: MALME-3M melanoma
RPMI-8226 leukemia = system: RPMI-8226 leukemia
OVCAR-5 ovarian = system: OVCAR-5 ovarian
HS 578T breast = system: HS 578T breast
U251 CNS = system: U251 CNS
MDA-N = system: MDA-N
MCF7 breast = system: MCF7 breast
UACC-62 melanoma = system: UACC-62 melanoma
SF-268 CNS = system: SF-268 CNS
OVCAR-4 ovarian = system: OVCAR-4 ovarian
UO-31 renal = system: UO-31 renal
SN12C renal = system: SN12C renal
M14 melanoma = system: M14 melanoma
HCT-15 colon = system: HCT-15 colon
OVCAR-8 ovarian = system: OVCAR-8 ovarian
SK-OV-3 ovarian = system: SK-OV-3 ovarian
NCI-H226 lung = system: NCI-H226 lung
SF-539 CNS = system: SF-539 CNS
HOP-62 NSCLC = system: HOP-62 NSCLC
BT-549 breast = system: BT-549 breast
NCI-H460 lung = system: NCI-H460 lung
COLO 205 colon = system: COLO 205 colon
SK-MEL-2 melanoma = system: SK-MEL-2 melanoma
SR leukemia = system: SR leukemia
NCI-H23 lung = system: NCI-H23 lung
NCI-H522 lung = system: NCI-H522 lung
IGROV1 ovarian = system: IGROV1 ovarian
NCI/ADR-RES ovarian = system: NCI/ADR-RES ovarian
EKVX NSCLC = system: EKVX NSCLC
786-0 renal = system: 786-0 renal
A498 renal = system: A498 renal
CAKI-1 renal = system: CAKI-1 renal
SNB-75 CNS = system: SNB-75 CNS
T-47D breast = system: T-47D breast
HCC-2998 colon = system: HCC-2998 colon
K-562 leukemia = system: K-562 leukemia
OVCAR-3 ovarian = system: OVCAR-3 ovarian
SK-MEL-5 melanoma = system: SK-MEL-5 melanoma

CC(C)(C)CNCCCNc1ccc(Cl)cc1
TGI (MOLT-4 leukemia): 25.6 µM
TGI (HL-60(TB) leukemia): 0.172 µM
TGI (HT29 colon): 56.5 µM
TGI (CCRF-CEM leukemia): > 100 µM
TGI (A549 NSCLC): > 100 µM
TGI (KM12 colon): > 100 µM
TGI (SNB-19 CNS): > 100 µM
TGI (RXF 393 renal): 74.3 µM
TGI (UACC-257 melanoma): 58.1 µM
TGI (HCT-116 colon): > 100 µM
TGI (SF-295 CNS): 69.1 µM
TGI (ACHN renal): > 100 µM
TGI (SW-620 colon): > 100 µM
TGI (MDA-MB-435): 68.2 µM
TGI (LOX IMVI melanoma): 46.9 µM
TGI (SK-MEL-28 melanoma): 44.3 µM
TGI (TK-10 renal): 73.9 µM
TGI (MDA-MB-231 breast): 82.3 µM
TGI (PC-3 prostate): > 100 µM
TGI (DU-145 prostate): > 100 µM
TGI (HOP-92 NSCLC): 79.4 µM
TGI (MALME-3M melanoma): 53.9 µM
TGI (RPMI-8226 leukemia): 55.4 µM
TGI (OVCAR-5 ovarian): > 100 µM
TGI (HS 578T breast): > 100 µM
TGI (U251 CNS): > 100 µM
TGI (MDA-N): > 100 µM
TGI (MCF7 breast): 46 µM
TGI (UACC-62 melanoma): 33.4 µM
TGI (SF-268 CNS): > 100 µM
TGI (OVCAR-4 ovarian): > 100 µM
TGI (UO-31 renal): > 100 µM
TGI (SN12C renal): > 100 µM
TGI (M14 melanoma): 58.6 µM
TGI (HCT-15 colon): > 100 µM
TGI (OVCAR-8 ovarian): > 100 µM
TGI (SK-OV-3 ovarian): > 100 µM
TGI (NCI-H226 lung): 78.7 µM
TGI (SF-539 CNS): > 100 µM
TGI (HOP-62 NSCLC): > 100 µM
TGI (BT-549 breast): > 100 µM
TGI (NCI-H460 lung): > 100 µM
TGI (COLO 205 colon): 45.3 µM
TGI (SK-MEL-2 melanoma): > 100 µM
TGI (SR leukemia): 49.4 µM
TGI (NCI-H23 lung): > 100 µM
TGI (NCI-H522 lung): > 100 µM
TGI (IGROV1 ovarian): > 100 µM
TGI (NCI/ADR-RES ovarian): > 100 µM
TGI (EKVX NSCLC): > 100 µM
TGI (786-0 renal): > 100 µM
TGI (A498 renal): 51.5 µM

CCOC(CN(C)C(=O)Nc1ccc(Cl)c(Cl)c1)OCC
TGI (MOLT-4 leukemia): > 10 µM
TGI (HL-60(TB) leukemia): > 10 µM
TGI (HT29 colon): > 10 µM
TGI (CCRF-CEM leukemia): > 10 µM
TGI (A549 NSCLC): > 10 µM
TGI (KM12 colon): > 10 µM
TGI (SNB-19 CNS): > 10 µM
TGI (RXF 393 renal): > 10 µM
TGI (UACC-257 melanoma): > 10 µM
TGI (HCT-116 colon): > 10 µM
TGI (SF-295 CNS): > 10 µM
TGI (ACHN renal): > 10 µM
TGI (SW-620 colon): > 10 µM
TGI (MDA-MB-435): > 10 µM
TGI (LOX IMVI melanoma): > 10 µM
TGI (SK-MEL-28 melanoma): > 10 µM
TGI (TK-10 renal): > 10 µM
TGI (CAKI-1 renal): > 10 µM
TGI (MDA-MB-231 breast): > 10 µM
TGI (PC-3 prostate): > 10 µM
TGI (DU-145 prostate): > 10 µM
TGI (HOP-92 NSCLC): > 10 µM
TGI (MALME-3M melanoma): > 10 µM
TGI (RPMI-8226 leukemia): > 10 µM
TGI (HS 578T breast): > 10 µM
TGI (U251 CNS): > 10 µM
TGI (MDA-N): > 10 µM
TGI (MCF7 breast): > 10 µM
TGI (SNB-75 CNS): > 10 µM
TGI (UACC-62 melanoma): > 10 µM
TGI (SF-268 CNS): > 10 µM
TGI (T-47D breast): > 10 µM
TGI (OVCAR-4 ovarian): > 10 µM
TGI (UO-31 renal): > 10 µM
TGI (SN12C renal): > 10 µM
TGI (M14 melanoma): > 10 µM
TGI (HCT-15 colon): > 10 µM
TGI (OVCAR-8 ovarian): > 10 µM
TGI (SK-OV-3 ovarian): > 10 µM
TGI (HCC-2998 colon): > 10 µM
TGI (NCI-H226 lung): > 10 µM
TGI (SF-539 CNS): > 10 µM
TGI (HOP-62 NSCLC): > 10 µM
TGI (NCI-H460 lung): > 10 µM
TGI (K-562 leukemia): > 10 µM
TGI (COLO 205 colon): > 10 µM
TGI (SK-MEL-2 melanoma): > 10 µM
TGI (SR leukemia): > 10 µM
TGI (NCI-H23 lung): > 10 µM
TGI (NCI-H522 lung): > 10 µM
TGI (IGROV1 ovarian): > 10 µM
TGI (NCI/ADR-RES ovarian): > 10 µM
TGI (EKVX NSCLC): > 10 µM
TGI (OVCAR-3 ovarian): > 10 µM
TGI (SK-MEL-5 melanoma): > 10 µM
TGI (786-0 renal): > 10 µM
TGI (A498 renal): > 10 µM
